Test results: US11498899B2, “Nitrone herbicides” (FMC Corporation, priority 2016, dated 2022)

How the values were obtained:
[1] = tested on: ryegrass, Italian (Italian ryegrass, Lolium multiflorum); test: Test A preemergence, visual injury rating 0-100; format: in vivo
[2] = tested on: foxtail, giant (giant foxtail, Setaria faberii); test: Test A preemergence, visual injury rating 0-100; format: in vivo
kochia (Kochia scoparia) [3] = test: Test A preemergence, visual injury rating 0-100; format: in vivo
[4] = tested on: pigweed (Amaranthus retroflexus); test: Test A preemergence, visual injury rating 0-100; format: in vivo
[5] = tested on: ragweed (common ragweed, Ambrosia elatior); test: Test A preemergence, visual injury rating 0-100; format: in vivo
[6] = tested on: barnyardgrass (Echinochloa crus-galli); test: Test B flooded paddy test, visual rating 0-100; details: Flood, 250 g ai/ha, applied to paddy water, rated after 13 to 15 days
[7] = tested on: ryegrass, Italian (Italian ryegrass, Lolium multiflorum); test: Test A postemergence, visual injury rating 0-100; format: in vivo; details: 0 to 100 scale
Description: (§1) Seeds of plant species selected from barnyardgrass (Echinochloa crus-galli), kochia (Kochia scoparia), ragweed (common ragweed, Ambrosia elatior), ryegrass, Italian (Italian ryegrass, Lolium multiflorum), foxtail, giant (giant foxtail, Setaria faberii), foxtail, green (green foxtail, Setaria viridis), and pigweed (Amaranthus retroflexus) were planted into a blend of loam soil and sand and treated preemergence with a directed soil spray using test chemicals formulated in a non-phytotoxic solvent mixture which included a surfactant.
(§2) At the same time, plants selected from these weed species and also wheat (Triticum aestivum), corn (Zea mays), blackgrass (Alopecurus myosuroides), and galium (catchweed bedstraw, Galium aparine) were planted in pots containing the same blend of loam soil and sand and treated with postemergence applications of test chemicals formulated in the same manner. Plants ranged in height from 2 to 10 cm and were in the one- to two-leaf stage for the postemergence treatment. Treated plants and untreated controls were maintained in a greenhouse for approximately 10 days, after which time all treated plants were compared to untreated controls and visually evaluated for injury. […] A dash (-) response means no test result.

[8] = tested on: wheat (Triticum aestivum); test: Test A postemergence, visual injury rating 0-100; format: in vivo; details: 0 to 100 scale
Description: as §1, §2

[9] = tested on: barnyardgrass (Echinochloa crus-galli); test: Test A postemergence, visual injury rating 0-100; format: in vivo; details: 0 to 100 scale
Description: as §1, §2

[10] = tested on: blackgrass (Alopecurus myosuroides); test: Test A postemergence, visual injury rating 0-100; format: in vivo; details: 0 to 100 scale
Description: as §1, §2

[11] = tested on: foxtail, giant (giant foxtail, Setaria faberii); test: Test A postemergence, visual injury rating 0-100; format: in vivo; details: 0 to 100 scale
Description: as §1, §2

kochia (Kochia scoparia) [12] = test: Test A postemergence, visual injury rating 0-100; format: in vivo; details: 0 to 100 scale
Description: as §1, §2

[13] = tested on: galium (catchweed bedstraw, Galium aparine); test: Test A postemergence, visual injury rating 0-100; format: in vivo; details: 0 to 100 scale
Description: as §1, §2

corn (Zea mays) = test: Test A postemergence, visual injury rating 0-100; format: in vivo; details: 0 to 100 scale
Description: as §1, §2

[14] = tested on: pigweed (Amaranthus retroflexus); test: Test A postemergence, visual injury rating 0-100; format: in vivo; details: 0 to 100 scale
Description: as §1, §2

[15] = tested on: ragweed (common ragweed, Ambrosia elatior); test: Test A postemergence, visual injury rating 0-100; format: in vivo; details: 0 to 100 scale
Description: as §1, §2

[16] = tested on: ducksalad (Heteranthera limosa); test: Test B flooded paddy test, visual rating 0-100; details: Flood, 250 g ai/ha, applied to paddy water, rated after 13 to 15 days
rice (Oryza sativa) = test: Test B flooded paddy test, visual rating 0-100 (0 no effect, 100 complete control); details: Flood, 250 g ai/ha, applied to paddy water, rated after 13 to 15 days
[17] = tested on: barnyardgrass (Echinochloa crus-galli); test: Test A preemergence, visual injury rating 0-100 (0 no effect, 100 complete control); format: in vivo
[18] = 31 g ai/ha, 0 to 100 scale (0 no effect, 100 complete control), approx. 10 days

Row | Compound | Ryegrass, Italian plant response rating (0 to 100 scale) ([1]; 125 g ai/ha) | Foxtail, Giant plant response rating (0 to 100 scale) ([2]; 125 g ai/ha) | Kochia plant response rating (0 to 100 scale) (kochia (Kochia scoparia) [3]; 125 g ai/ha) | Pigweed plant response rating (0 to 100 scale) ([4]; 125 g ai/ha) | Ragweed plant response rating (0 to 100 scale) ([5]; 125 g ai/ha) | Barnyardgrass plant response rating (0 to 100 scale) [6] | Ryegrass, Italian plant response rating ([7]; 125 g ai/ha) | Wheat plant response rating ([8]; 125 g ai/ha) | Barnyardgrass plant response rating ([9]; 125 g ai/ha) | Blackgrass plant response rating ([10]; 125 g ai/ha) | Foxtail, Giant plant response rating ([11]; 125 g ai/ha) | Kochia plant response rating (kochia (Kochia scoparia) [12]; 125 g ai/ha) | Galium plant response rating ([13]; 125 g ai/ha) | Corn plant response rating (corn (Zea mays); 125 g ai/ha) | Pigweed plant response rating ([14]; 125 g ai/ha) | Ragweed plant response rating ([15]; 125 g ai/ha) | Ducksalad plant response rating (0 to 100 scale) [16] | Rice plant response rating (0 to 100 scale) (rice (Oryza sativa)) | Barnyardgrass plant response rating (0 to 100 scale) ([17]; 125 g ai/ha) | Ryegrass, Italian plant response rating (0 to 100 scale) ([1]; 500 g ai/ha) | also measured
1 | CC1=[N+]([O-])C(C(=O)Nc2cccc(F)c2F)C(c2ccc(F)c(Oc3ccc(Cl)nc3)c2)C1 (racemic) [Compound 51] | 0 | 30 | 0 | 0 | 0 | 0 | 0 | 10 | 0 | 70 | 0 | 20 | 70 | 0 | 0 | 60 | 0 | 0 | 40 | – | Ryegrass, Italian plant response rating [1, 18]: 0; Foxtail, Giant plant response rating [2, 18]: 0; Kochia plant response rating (kochia (Kochia scoparia) [3]; [18]): 0; Pigweed plant response rating [4, 18]: 0; Ragweed plant response rating [5, 18]: 0; Ryegrass, Italian plant response rating ([7]; 31 g ai/ha): 0; Wheat plant response rating ([8]; 31 g ai/ha): 0; Barnyardgrass plant response rating ([9]; 31 g ai/ha): 0; Blackgrass plant response rating ([10]; 31 g ai/ha): 0; Foxtail, Giant plant response rating ([11]; 31 g ai/ha): 0; Kochia plant response rating (kochia (Kochia scoparia) [12]; 31 g ai/ha): 0; Galium plant response rating ([13]; 31 g ai/ha): 60; Corn plant response rating (corn (Zea mays); 31 g ai/ha): 0; Pigweed plant response rating ([14]; 31 g ai/ha): 0; Ragweed plant response rating ([15]; 31 g ai/ha): 0; Barnyardgrass plant response rating [17, 18]: 0
2 | CC1=[N+]([O-])C(C(=O)Nc2cccc(F)c2F)C(c2ccc(F)c(Oc3ncc(F)cn3)c2)C1 (racemic) [Compound 52] | 80 | 80 | 0 | 0 | 0 | 0 | 20 | 10 | 30 | 30 | 0 | 0 | 20 | 0 | 0 | 0 | 0 | 0 | 90 | 90 | Foxtail, Giant plant response rating (0 to 100 scale) ([2]; 500 g ai/ha): 100; Kochia plant response rating (0 to 100 scale) (kochia (Kochia scoparia) [3]; 500 g ai/ha): 20; Pigweed plant response rating (0 to 100 scale) ([4]; 500 g ai/ha): 70; Ragweed plant response rating (0 to 100 scale) ([5]; 500 g ai/ha): 60; Ryegrass, Italian plant response rating ([7]; 500 g ai/ha): 60; Wheat plant response rating ([8]; 500 g ai/ha): 70; Barnyardgrass plant response rating ([9]; 500 g ai/ha): 70; Blackgrass plant response rating ([10]; 500 g ai/ha): 70; Foxtail, Giant plant response rating ([11]; 500 g ai/ha): 90; Kochia plant response rating (kochia (Kochia scoparia) [12]; 500 g ai/ha): 20; Galium plant response rating ([13]; 500 g ai/ha): 70; Corn plant response rating (corn (Zea mays); 500 g ai/ha): 70; Pigweed plant response rating ([14]; 500 g ai/ha): 0; Ragweed plant response rating ([15]; 500 g ai/ha): 30; Barnyardgrass plant response rating (0 to 100 scale) ([17]; 500 g ai/ha): 100
3 | CC1=[N+]([O-])C(C(=O)Nc2cccc(F)c2F)C(c2cccc(Oc3ccc(Cl)cn3)c2)C1 (racemic) [Compound 56] | 60 | 60 | 0 | 0 | 0 | 25 | 50 | 20 | 20 | 70 | 40 | 10 | 30 | 0 | 0 | 0 | 40 | 0 | 10 | 70 | Foxtail, Giant plant response rating (0 to 100 scale) ([2]; 500 g ai/ha): 90; Kochia plant response rating (0 to 100 scale) (kochia (Kochia scoparia) [3]; 500 g ai/ha): 0; Pigweed plant response rating (0 to 100 scale) ([4]; 500 g ai/ha): 0; Ragweed plant response rating (0 to 100 scale) ([5]; 500 g ai/ha): 0; Ryegrass, Italian plant response rating ([7]; 500 g ai/ha): 80; Wheat plant response rating ([8]; 500 g ai/ha): 40; Barnyardgrass plant response rating ([9]; 500 g ai/ha): 60; Blackgrass plant response rating ([10]; 500 g ai/ha): 80; Foxtail, Giant plant response rating ([11]; 500 g ai/ha): 40; Kochia plant response rating (kochia (Kochia scoparia) [12]; 500 g ai/ha): 20; Galium plant response rating ([13]; 500 g ai/ha): 50; Corn plant response rating (corn (Zea mays); 500 g ai/ha): 40; Pigweed plant response rating ([14]; 500 g ai/ha): 30; Ragweed plant response rating ([15]; 500 g ai/ha): 20; Barnyardgrass plant response rating (0 to 100 scale) ([17]; 500 g ai/ha): 90
4 | COc1cc(C2CC(C)=[N+]([O-])C2C(=O)Nc2cccc(F)c2F)cc(C)n1 (racemic) [Compound 57] | 20 | 90 | 60 | 0 | 0 | 55 | 40 | 20 | 80 | 80 | 40 | 0 | 30 | 60 | 0 | 0 | 0 | 0 | 90 | 90 | Foxtail, Giant plant response rating (0 to 100 scale) ([2]; 500 g ai/ha): 100; Kochia plant response rating (0 to 100 scale) (kochia (Kochia scoparia) [3]; 500 g ai/ha): 60; Pigweed plant response rating (0 to 100 scale) ([4]; 500 g ai/ha): 20; Ragweed plant response rating (0 to 100 scale) ([5]; 500 g ai/ha): 30; Ryegrass, Italian plant response rating ([7]; 500 g ai/ha): 90; Wheat plant response rating ([8]; 500 g ai/ha): 90; Barnyardgrass plant response rating ([9]; 500 g ai/ha): 80; Blackgrass plant response rating ([10]; 500 g ai/ha): 90; Foxtail, Giant plant response rating ([11]; 500 g ai/ha): 90; Kochia plant response rating (kochia (Kochia scoparia) [12]; 500 g ai/ha): 30; Galium plant response rating ([13]; 500 g ai/ha): 40; Corn plant response rating (corn (Zea mays); 500 g ai/ha): 90; Pigweed plant response rating ([14]; 500 g ai/ha): 0; Ragweed plant response rating ([15]; 500 g ai/ha): 0; Barnyardgrass plant response rating (0 to 100 scale) ([17]; 500 g ai/ha): 100
5 | CC1=[N+]([O-])C(C(=O)Nc2cccc(F)c2F)C(c2cccc(Oc3ccc(F)cc3)c2)C1 (racemic) [Compound 58] | 10 | 40 | 0 | 0 | 0 | 0 | 20 | 10 | 10 | 20 | 30 | 0 | 30 | 0 | 0 | 0 | 0 | 0 | 10 | 80 | Foxtail, Giant plant response rating (0 to 100 scale) ([2]; 500 g ai/ha): 90; Kochia plant response rating (0 to 100 scale) (kochia (Kochia scoparia) [3]; 500 g ai/ha): 0; Pigweed plant response rating (0 to 100 scale) ([4]; 500 g ai/ha): 0; Ragweed plant response rating (0 to 100 scale) ([5]; 500 g ai/ha): 90; Ryegrass, Italian plant response rating ([7]; 500 g ai/ha): 50; Wheat plant response rating ([8]; 500 g ai/ha): 20; Barnyardgrass plant response rating ([9]; 500 g ai/ha): 30; Blackgrass plant response rating ([10]; 500 g ai/ha): 70; Foxtail, Giant plant response rating ([11]; 500 g ai/ha): 70; Kochia plant response rating (kochia (Kochia scoparia) [12]; 500 g ai/ha): 20; Galium plant response rating ([13]; 500 g ai/ha): 50; Corn plant response rating (corn (Zea mays); 500 g ai/ha): 40; Pigweed plant response rating ([14]; 500 g ai/ha): 30; Ragweed plant response rating ([15]; 500 g ai/ha): 0; Barnyardgrass plant response rating (0 to 100 scale) ([17]; 500 g ai/ha): 90
